{
  "source": "patent US9632034B2",
  "about": "“Fluorogenic and chromogenic substrate” (LI-COR, Inc., priority 2015, dated 2017)",
  "key": {"HRP-azine system": {"biological_target": "T1, HRP-azine system (Armoracia rusticana, UniProt P00433)", "T1 sequence (P00433 31-338)": "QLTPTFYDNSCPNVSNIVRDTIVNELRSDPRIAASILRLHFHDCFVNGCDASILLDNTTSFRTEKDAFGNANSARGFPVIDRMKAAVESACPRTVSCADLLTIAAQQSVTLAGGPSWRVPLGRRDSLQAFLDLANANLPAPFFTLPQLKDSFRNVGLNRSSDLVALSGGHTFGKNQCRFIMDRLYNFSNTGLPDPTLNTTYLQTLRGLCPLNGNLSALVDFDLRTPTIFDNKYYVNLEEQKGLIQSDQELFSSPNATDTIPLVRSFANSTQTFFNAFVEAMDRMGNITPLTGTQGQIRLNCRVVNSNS", "assay": "Optimisation of formulation components (radical enhancer, nucleophilic reagent, oxidant) on western blot", "assay_type": "biochemical", "settings": "for effect of oxidant on azine oxidization and formation of colored and fluorescent compounds: at certain concentrations, HRP-azine system; for preferred concentration in working solution: by rate of visualization and/or number of colored bands on western blot, PTAS tested 2 to 30 mM, MORP 0 to 20 mM", "protocol": "The optimal concentrations of the cation radical enhancer, nucleophilic reagent, solvent system and oxidant in the formulation were also tested. Water soluble azine, particularly 3-(10′-phenothiazinyl)propane-1-sulfonate (PTAS) was tested at various concentrations from 2 to 30 mM in a working solution. The effects were evaluated using the rate (speed) of visualization and the number of colored band on western blot. The preferred concentration of PTAS was 18 mM. Other water soluble and N-substituted PTA derivatives can also be used in place of PTAS or in combination thereof. The nucleophilic reagent serves as a co-substrate in the detection solution. The nucleophilic reagent can include five or six membered nitrogen heteroaromatic ring compounds. MORP at concentrations from 0 to 20 mM was tested in the formulation. Based on the number of colored bands detected, the preferred concentration was 15 mM MORP in the working solution.\nStable oxidants that are compatible with HRP-azine system are tested. Sodium perborate (NaBO3), Urea-H2O2 and stabilized H2O2 at certain concentrations accelerated azine oxidization and formation of colored and fluorescent compounds."}, "[1]": {"biological_target": "T2, HRP-conjugated secondary antibody (Erk protein in C32 cell lysates) (Armoracia rusticana, UniProt P00433)", "T2 sequence (P00433 31-338)": "T1 sequence (P00433 31-338)", "assay": "Western blot of Erk protein in C32 cell lysates, near-infrared chemifluorescence detection against chemiluminescent substrate", "assay_type": "biochemical", "protocol": "A series of tests were performed to determine the optimal concentration of PTA in the detection method. Western blot analysis was performed on cell lysates generated from the C32 cell line that expresses high levels of Erk protein. The lysates were processed according to standard western blotting protocols. Briefly, Erk protein was detected using a primary antibody against Erk (an anti-Erk monoclonal antibody) and an HRP-conjugated secondary antibody (goat anti-mouse IgG antibody). Different concentrations of the PTA substrate were compared by visualization of color formation and detection of protein bands. The limit of detection (LOD) was measured by chemifluorescence signal and compared to the LOD using Thermo Scientific™ SuperSignal™ West Femto Substrate. […] FIG. 5 illustrates the comparison and effect of PTA concentration on LOD of Erk protein in C32 cell lysates.\nThe exemplary formulation of the detection solution tested comprises two concentrated solutions: Solution A (a first part) and Solution B (a second part). […]\nIn this experiment Erk protein was detected in C32 cell lysates using a 1:1000 dilution of a monoclonal antibody directed to Erk. […] Near-infrared fluorescence from PTA treated blot was detected using the Odyssey® CLx system set at the 700 channel. Chemiluminescence from the control blot was detected using the Odyssey® Fc imaging system set at the chemiluminescence channel."}, "[2]": {"assay": "PTA solubility in water and in assay buffer with solubilizers (precipitate visualization, HPLC)", "assay_type": "physicochemical", "settings": "for Appearance of solution: PTA in assay buffer (Tris buffer, pH 9.5) with the named solubilizer at the w/v concentration printed in the table; for Appearance of PTA solution after overnight storage at room temperature: PTA in assay buffer (Tris buffer, pH 9.5) with the named solubilizer", "protocol": "Next, the solvent system for phenothiazine (PTA) was tested. […] The solubility of PTA with polymers was tested by precipitate visualization and by HPLC of fresh and stored samples. Table 1 provides a comparison of polymers that include PTA solubility in an assay buffer, such as Tris buffer, pH 9.5."}},
  "data": [
    {"compound": "OO", "note": "[stabilized H2O2, hydrogen peroxide]", "values": [
      {"measurement": "effect of oxidant on azine oxidization and formation of colored and fluorescent compounds", "setting": "HRP-azine system", "value": "accelerated"}
    ]},
    {"compound": "NC(N)=O.OO", "note": "[Urea-H2O2, urea-hydrogen peroxide]", "values": [
      {"measurement": "effect of oxidant on azine oxidization and formation of colored and fluorescent compounds", "setting": "HRP-azine system", "value": "accelerated"}
    ]},
    {"compound": "Sodium perborate", "values": [
      {"measurement": "effect of oxidant on azine oxidization and formation of colored and fluorescent compounds", "setting": "HRP-azine system", "value": "accelerated"}
    ]},
    {"compound": "O=S(=O)([O-])CCCN1c2ccccc2Sc2ccccc21.[Na+]", "note": "[PTAS, sodium 3-(phenothiazine-10-yl)propane-1-sulfonate]", "values": [
      {"measurement": "preferred concentration in working solution", "setting": "HRP-azine system", "value": 18, "unit": "mM"}
    ]},
    {"compound": "CN(C)c1ccc2c(c1)Sc1cc(N(C)C)ccc1N2C(=O)c1ccccc1", "note": "[BLMB]", "values": [
      {"measurement": "enhancement in sensitivity compared to SuperSignal West Femto Chemiluminescence Substrate", "setting": "[1]; BLMB formulation with dextran sulfate, DMAP, HNA, citric buffer, NaBO3, final pH 5.0", "value": "2˜4 fold"}
    ]},
    {"compound": "OCCO", "note": "[Ethylene Glycol (EG), Ethylene Glycol]", "values": [
      {"measurement": "Appearance of solution", "setting": "[2]", "value": "cloudy"},
      {"measurement": "Appearance of PTA solution after overnight storage at room temperature", "setting": "[2]", "value": "Precipitation,"},
      {"measurement": "PTA concentration given with appearance of PTA solution after overnight storage at room temperature", "setting": "[2]; PTA in assay buffer with the named solubilizer", "value": 0.5, "unit": "mM"}
    ]},
    {"compound": "c1cc(N2CCOCC2)ccn1", "note": "[MORP, 4-morpholinopyridine]", "values": [
      {"measurement": "preferred concentration in working solution", "setting": "HRP-azine system", "value": 15, "unit": "mM"}
    ]},
    {"compound": "c1ccc2c(c1)Nc1ccccc1S2", "note": "[PTA, 10H-phenothiazine]", "values": [
      {"measurement": "Appearance of solution", "setting": "[2]", "value": "cloudy"},
      {"measurement": "Appearance of PTA solution after overnight storage at room temperature", "setting": "[2]", "value": "Precipitate,"},
      {"measurement": "PTA concentration given with appearance of PTA solution after overnight storage at room temperature", "setting": "[2]; assay buffer, no solubilizer added", "value": 0.00015, "unit": "mM"},
      {"measurement": "PTA concentration with the highest sensitivity in working solution", "setting": "[1]; LOD of Erk protein by chemifluorescence at 700 nm, 0.65, 0.35, 0.15 mM PTA compared", "value": 0.35, "unit": "mM"}
    ]}
  ]
}
